Data taken from publication PMC6480038, “In Vitro and In Silico Acetylcholinesterase Inhibitory Activity of Thalictricavine and Canadine and Their Predicted Penetration across the Blood-Brain Barrier” (Molecules, 2019).

Experiments:
[1] = target: T1, human recombinant acetylcholinesterase (hAChE) (Homo sapiens, UniProt P22303); experiment: biochemical; conditions: for SI (selectivity index for hAChE): ratio IC50 hBChE / IC50 hAChE; for IC50: recombinant hAChE, ATCh substrate, pH 7.4, 37 °C, mean ± SEM of three measurements
T1 construct: purchased Sigma-Aldrich (Prague, Czech Republic)
Text: (§1) Human recombinant acetylcholinesterase (hAChE; EC 3.1.1.7), human plasma butyrylcholinesterase (hBChE; EC 3.1.1.8), 5,5′-dithiobis(2-nitrobenzoic acid) (Ellman’s reagent, DTNB), phosphate buffer (PB, pH 7.4), dimethyl sulfoxide (DMSO), acetylthiocholine (ATCh), and butyrylthiocholine (BTCh) were purchased from Sigma-Aldrich (Prague, Czech Republic). Polystyrene Nunc 96-well microplates with flat bottom shape (ThermoFisher Scientific, Waltham, MA, USA) were utilized for measuring purposes of cholinesterase assays and the kinetic inhibition study.
(§2) The hAChE and hBChE inhibitory activity of the tested compounds was determined using a modified Ellman’s method. All the assays were carried out in 0.1 M KH2PO4/K2HPO4 buffer, pH 7.4. Enzyme solutions were prepared at an activity of 2.0 units/mL in 2 mL aliquots. The assay medium ([…]) consisted of 40 µL of 0.1 M phosphate buffer (pH 7.4), 20 µL of 0.01 M DTNB, 10 µL of enzyme, and 20 µL of 0.01 M substrate (ATCh iodide solution). […] The reaction started by addition of 20 µL of the substrate (ATCh for hAChE, BTCh for hBChE). […] Each concentration was assayed in triplicate.

[2] = target: T2, human plasma butyrylcholinesterase (hBChE) (Homo sapiens, UniProt P06276); experiment: hBChE inhibition, modified Ellman's method; assay type: biochemical; conditions: BTCh substrate, pH 7.4, 37 °C, mean ± SEM of three measurements
T2 construct: Recombinant hAChE and plasma hBChE were used as sources of cholinesterases; purchased Sigma-Aldrich (Prague, Czech Republic); host or cells: human plasma
Text: as §1, §2

recombinant hAChE = target: T3, recombinant hAChE (Homo sapiens, UniProt P22303); experiment: Kinetic study of hAChE inhibition; assay type: biochemical; conditions: for type of inhibition: nonlinear regression with sum-of-squares F-test, p < 0.05; for Ki: nonlinear regression, ATCh 156–1250 µM
T3 construct: purchased Sigma-Aldrich (Prague, Czech Republic)
Text: The mode of interaction of the hAChE inhibition was elucidated for 1 and 2 using a kinetic study in order to gain information about the mode of inhibition and the binding site of the isolated alkaloids. Recombinant hAChE was used in this kinetic analysis of 1 and 2. […] The type of the inhibition mechanism was clarified by a nonlinear regression analysis. The results computed for each model type of inhibition (competitive, non-competitive, uncompetitive and mixed) were compared with the sum-of-squares F-test.
The kinetic study of hAChE inhibition was performed by using Ellman’s method (described above). […] Reactions were performed in triplicate. Vmax and Km values, respectively, of the Michaelis-Menten kinetics and Ki were calculated by non-linear regression from the substrate velocity curves. Linear regression was used for calculation of Lineweaver-Burk plots. All calculations were performed using the GraphPad Prism software.

in vitro = conditions: pig, PAMPA, pH 7.4
[3] = test system: selected human carcinoma and non-carcinoma cells; conditions: read-out: cytotoxicity IC50; cited from earlier work
[4] = Table S1, predictive penetration into the CNS
[5] = test system: AChE (red blood cell ghosts); conditions: earlier screening, 25 °C, red blood cell ghosts as AChE source; cited from earlier work

T1 sequence (P22303 32-614): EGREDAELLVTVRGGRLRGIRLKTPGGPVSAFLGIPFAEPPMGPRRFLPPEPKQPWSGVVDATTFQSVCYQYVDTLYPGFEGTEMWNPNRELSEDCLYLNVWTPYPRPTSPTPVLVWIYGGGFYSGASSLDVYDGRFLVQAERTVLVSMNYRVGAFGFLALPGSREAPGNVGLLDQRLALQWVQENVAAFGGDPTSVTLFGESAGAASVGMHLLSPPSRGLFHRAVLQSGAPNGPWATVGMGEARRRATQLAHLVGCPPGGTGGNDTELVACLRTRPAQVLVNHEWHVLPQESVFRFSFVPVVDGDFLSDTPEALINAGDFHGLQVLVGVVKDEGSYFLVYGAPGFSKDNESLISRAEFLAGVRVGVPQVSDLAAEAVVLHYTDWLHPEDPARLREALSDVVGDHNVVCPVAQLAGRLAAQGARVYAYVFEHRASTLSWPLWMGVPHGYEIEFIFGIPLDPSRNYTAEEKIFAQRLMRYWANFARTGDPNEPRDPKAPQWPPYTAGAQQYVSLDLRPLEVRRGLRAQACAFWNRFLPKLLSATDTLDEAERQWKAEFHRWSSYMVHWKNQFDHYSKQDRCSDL
T3 sequence (P22303 32-614): as above
T2 sequence (P06276 29-602): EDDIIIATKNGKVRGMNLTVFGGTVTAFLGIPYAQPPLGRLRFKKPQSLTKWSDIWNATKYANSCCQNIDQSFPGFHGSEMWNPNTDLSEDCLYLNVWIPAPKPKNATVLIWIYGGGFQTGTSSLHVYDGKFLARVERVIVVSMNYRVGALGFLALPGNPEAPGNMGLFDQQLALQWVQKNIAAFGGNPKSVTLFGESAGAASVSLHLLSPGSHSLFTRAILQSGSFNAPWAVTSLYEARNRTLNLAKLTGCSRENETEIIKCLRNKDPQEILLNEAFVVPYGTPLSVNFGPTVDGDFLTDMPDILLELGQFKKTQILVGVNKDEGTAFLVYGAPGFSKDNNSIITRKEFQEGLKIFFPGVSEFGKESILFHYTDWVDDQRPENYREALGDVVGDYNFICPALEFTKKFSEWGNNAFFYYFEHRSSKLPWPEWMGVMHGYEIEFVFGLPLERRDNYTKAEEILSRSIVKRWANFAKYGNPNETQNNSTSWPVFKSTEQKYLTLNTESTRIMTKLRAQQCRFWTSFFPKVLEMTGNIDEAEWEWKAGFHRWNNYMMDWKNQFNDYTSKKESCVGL

## COc1ccc2c(c1OC)CN1CCc3cc4c(cc3[C@H]1[C@H]2C)OCO4 [Compound 1, (+)-thalictricavine]
[1]
  SI (selectivity index for hAChE): >263
  IC50: 0.38 ± 0.05 µM
[2]
  IC50: > 100 µM
Recombinant hAChE
  type of inhibition: competitive
  Ki: 0.174 ± 0.0569 µM
In vitro
  Papp: 25 ± 1 nm/s
[3]
  IC50: > 10 µM

## COc1ccc2c(c1OC)CN1CCc3cc4c(cc3[C@H]1C2)OCO4 [Compound 2, (+)-canadine]
[1]
  SI (selectivity index for hAChE): >143
  IC50: 0.7 ± 0.07 µM
[2]
  IC50: > 100 µM
Recombinant hAChE
  type of inhibition: competitive
  Ki: 0.129 ± 0.044 µM
[4]
  PAMPA-BBB prediction: CNS +
In vitro
  Papp: 50 ± 3 nm/s
[5]
  IC50 value for AChE: low micromolar range
[3]
  IC50: > 10 µM

## Cn1c(=O)c2c(ncn2C)n(C)c1=O [caffeine, reference compound]
In vitro
  Papp: 3 nm/s
